Biological target: T1, Tyrosinase (Agaricus bisporus, UniProt O42713)
T1 sequence (O42713 whole entry): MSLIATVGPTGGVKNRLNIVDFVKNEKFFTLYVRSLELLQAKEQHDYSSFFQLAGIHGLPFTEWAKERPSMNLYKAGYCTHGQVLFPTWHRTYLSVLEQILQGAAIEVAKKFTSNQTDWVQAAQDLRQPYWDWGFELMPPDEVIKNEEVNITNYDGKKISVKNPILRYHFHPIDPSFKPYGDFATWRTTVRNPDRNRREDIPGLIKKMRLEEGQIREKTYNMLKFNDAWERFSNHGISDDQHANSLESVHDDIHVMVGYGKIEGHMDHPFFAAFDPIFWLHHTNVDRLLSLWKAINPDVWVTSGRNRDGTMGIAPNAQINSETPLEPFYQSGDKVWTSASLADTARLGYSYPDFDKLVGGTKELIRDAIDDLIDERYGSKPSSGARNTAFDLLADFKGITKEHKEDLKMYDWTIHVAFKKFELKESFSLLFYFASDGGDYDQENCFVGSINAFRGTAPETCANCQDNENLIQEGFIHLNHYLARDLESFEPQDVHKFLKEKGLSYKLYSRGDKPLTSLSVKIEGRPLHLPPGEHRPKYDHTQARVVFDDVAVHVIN
Experiment: Inhibition of mushroom tyrosinase assessed as oxidation of L-DOPA

NC(=O)[C@H](Cc1ccccc1)NC(=O)OCc1cc(=O)c(O)co1
IC50: 14.7 µM
Ki: 11 µM

— ChEMBL document CHEMBL1155184, “Kojic acid-amino acid conjugates as tyrosinase inhibitors” (Bioorg Med Chem Lett, 2009)
